Measurements reported in the CheMixHub viscosity set.

Test: xn = mol fraction of the nth substance listed

CC(=O)O + CS(C)=O
viscosity [mPa·s]
Conditions	298.15 K	303.15 K	308.15 K	313.15 K	318.15 K	323.15 K
101 kPa, x2 = 0.2	2.359	–	–	–	–	–
101 kPa, x2 = 0.4	2.806	–	–	–	–	–
101 kPa, x2 = 0.6	2.525	–	–	–	–	–
101 kPa, x2 = 0.8	2.231	–	–	–	–	–
101.33 kPa, x1 = 0.0999	–	1.891	1.728	1.588	1.463	1.353
101.33 kPa, x1 = 0.199	–	1.975	1.803	1.655	1.525	1.411
101.33 kPa, x1 = 0.2973	–	2.082	1.898	1.738	1.605	1.482
101.33 kPa, x1 = 0.4013	–	2.265	2.06	1.884	1.732	1.59
101.33 kPa, x1 = 0.5005	–	2.383	2.165	1.975	1.809	1.664
101.33 kPa, x1 = 0.5997	–	2.46	2.223	2.024	1.848	1.695
101.33 kPa, x1 = 0.6966	–	2.374	2.148	1.946	1.78	1.628
101.33 kPa, x1 = 0.8068	–	2.05	1.857	1.694	1.549	1.425
101.33 kPa, x1 = 0.9006	–	1.601	1.464	1.345	1.241	1.149
101.33 kPa, x2 = 0.0978	1.755	–	1.458	–	1.229	–
101.33 kPa, x2 = 0.1997	2.299	–	1.876	–	1.552	–
101.33 kPa, x2 = 0.2991	2.631	–	2.142	–	1.762	–
101.33 kPa, x2 = 0.4069	2.728	–	2.228	–	1.84	–
101.33 kPa, x2 = 0.5247	2.661	–	2.17	–	1.784	–
101.33 kPa, x2 = 0.6036	2.465	–	2.034	–	1.694	–
101.33 kPa, x2 = 0.7038	2.303	–	1.91	–	1.591	–
101.33 kPa, x2 = 0.804	2.178	–	1.804	–	1.507	–
101.33 kPa, x2 = 0.903	2.081	–	1.733	–	1.443	–

ClCCCl + CCCCCO
303.15 K, 101 kPa
Conditions	viscosity [mPa·s]
x1 = 0.1509	2.002
x1 = 0.3002	1.472
x1 = 0.4539	1.111
x1 = 0.6003	0.906
x1 = 0.7472	0.777
x1 = 0.8986	0.706

CCC(C)Br (stereo not drawn) + CCCCO
viscosity [mPa·s], 101.3 kPa
Conditions	x1 = 0.1031	x1 = 0.2031	x1 = 0.3016	x1 = 0.4044	x1 = 0.5054	x1 = 0.5983	x1 = 0.7019	x1 = 0.8026	x1 = 0.9
298.15 K	2.035	1.634	1.325	1.097	0.9278	0.8012	0.7037	0.6308	0.5835
313.15 K	1.426	1.174	0.9794	0.8345	0.7206	0.6389	0.5736	0.523	0.4876

ClCCCl + ClC(Cl)Cl
303.15 K, 101.3 kPa
Conditions	viscosity [mPa·s]
x1 = 0.0711	0.524
x1 = 0.1645	0.5402
x1 = 0.216	0.5493
x1 = 0.3322	0.5723
x1 = 0.4444	0.5947
x1 = 0.5227	0.6115
x1 = 0.6269	0.6349
x1 = 0.7591	0.6659
x1 = 0.7901	0.6733
x1 = 0.8637	0.692
x1 = 0.935	0.7102

C[Si]1(C)O[Si](C)(C)O[Si](C)(C)O[Si](C)(C)O1 + CCCCCCCCCCCCCC
viscosity [mPa·s], 103 kPa
Conditions	298.15 K	308.15 K	318.15 K
x1 = 0.05	1.944	1.605	1.347
x1 = 0.1	1.905	1.579	1.327
x1 = 0.15	1.881	1.56	1.312
x1 = 0.2	1.859	1.536	1.293
x1 = 0.25	1.853	1.523	1.282
x1 = 0.3	1.843	1.527	1.287
x1 = 0.35	1.833	1.52	1.281
x1 = 0.4	1.831	1.518	1.278
x1 = 0.45	1.82	1.509	1.274
x1 = 0.5	1.815	1.507	1.273
x1 = 0.55	1.817	1.51	1.275
x1 = 0.6	1.824	1.515	1.279
x1 = 0.65	1.831	1.522	1.285
x1 = 0.7	1.844	1.533	1.294
x1 = 0.7498	1.861	1.548	1.307
x1 = 0.8	1.887	1.571	1.324
x1 = 0.85	1.922	1.6	1.349
x1 = 0.8999	1.965	1.632	1.376
x1 = 0.95	2.014	1.672	1.406

ClCCl + Cc1ccccc1
101 kPa
Conditions	viscosity [mPa·s]
293.15 K, x1 = 0.1635	0.564
293.15 K, x1 = 0.3002	0.543
293.15 K, x1 = 0.4025	0.528
293.15 K, x1 = 0.4771	0.517
293.15 K, x1 = 0.5025	0.511
293.15 K, x1 = 0.5801	0.498
293.15 K, x1 = 0.5919	0.496
293.15 K, x1 = 0.675	0.479
293.15 K, x1 = 0.7431	0.468
293.15 K, x1 = 0.788	0.465
298.15 K, x1 = 0.2198	0.525
298.15 K, x1 = 0.3271	0.51
298.15 K, x1 = 0.4201	0.497
298.15 K, x1 = 0.5108	0.48
298.15 K, x1 = 0.5701	0.472
298.15 K, x1 = 0.6325	0.462
298.15 K, x1 = 0.6841	0.455
298.15 K, x1 = 0.7201	0.45
298.15 K, x1 = 0.7501	0.447
303.15 K, x1 = 0.218	0.497
303.15 K, x1 = 0.3331	0.481
303.15 K, x1 = 0.4402	0.467
303.15 K, x1 = 0.5223	0.45
303.15 K, x1 = 0.6191	0.436
303.15 K, x1 = 0.694	0.424
303.15 K, x1 = 0.7651	0.415
303.15 K, x1 = 0.8053	0.412

ClCCl + CCCCCO
298.15 K, 101 kPa
Conditions	viscosity [mPa·s]
x2 = 0.0966	0.7741
x2 = 0.194	1.097
x2 = 0.2921	1.391
x2 = 0.3909	1.669
x2 = 0.4905	1.93
x2 = 0.5908	2.182
x2 = 0.6919	2.437
x2 = 0.7938	2.688
x2 = 0.8965	2.927

ClCCl + CCCCn1cc[n+](C)c1.F[B-](F)(F)F
Conditions	viscosity [mPa·s]
298.15 K, 101 kPa, x1 = 0.1	84.5

C1CCCCCC1 + C1CCCCC1
303.15 K, 101 kPa
Conditions	viscosity [mPa·s]
x2 = 0.1425	1.16
x2 = 0.2998	1.085
x2 = 0.4978	1.003
x2 = 0.6947	0.9296
x2 = 0.8482	0.8767

CC(=O)O + CCCCOC(C)=O
viscosity [mPa·s], 101 kPa
Conditions	298.15 K	313.15 K
x2 = 0.1025	1.003	0.811
x2 = 0.2035	0.947	0.767
x2 = 0.2989	0.887	0.724
x2 = 0.3998	0.842	0.685
x2 = 0.4907	0.811	0.671
x2 = 0.6449	0.77	0.63
x2 = 0.8015	0.729	0.599
x2 = 0.8705	0.726	0.589
x2 = 0.8886	0.723	0.592
x2 = 0.9096	0.712	0.583
x2 = 0.9315	0.698	0.58
x2 = 0.9427	0.698	0.58
x2 = 0.9605	0.696	0.574
x2 = 0.9779	0.686	0.563
